pKd: −log10 of the molar value.
Tests used:
[1] = molecular target: T1, soluble guanylate cyclase α1β1 (sGC) (Homo sapiens, UniProt Q02108+Q02153); experiment: SPR (Biacore T200), concentration series; format: binding
T1 construct: gene GUCY1B1; α1β1 catalytic domain (sGCcat); with sGC α1 subunit (GUCY1A1)
T1 sequence (Q02153 408-619 limits assumed): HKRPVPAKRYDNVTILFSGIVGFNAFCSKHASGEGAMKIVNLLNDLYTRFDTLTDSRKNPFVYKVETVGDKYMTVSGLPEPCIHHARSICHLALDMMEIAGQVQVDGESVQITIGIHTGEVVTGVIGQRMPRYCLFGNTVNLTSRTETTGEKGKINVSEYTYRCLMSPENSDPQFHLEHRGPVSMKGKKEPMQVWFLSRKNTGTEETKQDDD
T1 sequence (Q02108 467-690): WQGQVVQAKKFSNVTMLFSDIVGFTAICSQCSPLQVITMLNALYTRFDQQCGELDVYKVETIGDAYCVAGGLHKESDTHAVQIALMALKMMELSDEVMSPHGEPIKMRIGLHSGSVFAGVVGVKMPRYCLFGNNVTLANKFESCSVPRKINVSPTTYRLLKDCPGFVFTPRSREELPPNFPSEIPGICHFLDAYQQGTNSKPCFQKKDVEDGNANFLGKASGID

[2] = molecular target: T2, soluble guanylate cyclase α1β1 (sGC) (Homo sapiens, UniProt Q02153); experiment: SPR (Biacore T200) at […]; format: binding
T2 construct: gene GUCY1B1; full length sGC; with sGC α1 subunit (GUCY1A1)
T2 sequence (Q02153 1-619): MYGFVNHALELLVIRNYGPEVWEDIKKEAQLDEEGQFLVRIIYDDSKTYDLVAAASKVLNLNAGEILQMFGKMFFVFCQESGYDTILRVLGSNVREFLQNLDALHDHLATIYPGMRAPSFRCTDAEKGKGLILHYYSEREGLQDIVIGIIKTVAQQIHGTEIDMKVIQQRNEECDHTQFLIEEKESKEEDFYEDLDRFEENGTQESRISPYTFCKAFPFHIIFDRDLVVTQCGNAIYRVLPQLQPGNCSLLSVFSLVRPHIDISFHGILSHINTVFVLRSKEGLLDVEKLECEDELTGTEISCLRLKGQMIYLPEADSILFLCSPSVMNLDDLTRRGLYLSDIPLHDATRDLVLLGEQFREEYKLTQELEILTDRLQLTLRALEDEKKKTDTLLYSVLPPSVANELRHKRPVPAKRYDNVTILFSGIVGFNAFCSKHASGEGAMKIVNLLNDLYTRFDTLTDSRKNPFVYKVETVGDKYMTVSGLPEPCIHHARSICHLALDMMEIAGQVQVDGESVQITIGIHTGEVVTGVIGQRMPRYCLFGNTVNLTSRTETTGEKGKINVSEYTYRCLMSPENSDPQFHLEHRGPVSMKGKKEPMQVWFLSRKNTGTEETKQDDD
T2 sequence (Q02108 1-690 partner): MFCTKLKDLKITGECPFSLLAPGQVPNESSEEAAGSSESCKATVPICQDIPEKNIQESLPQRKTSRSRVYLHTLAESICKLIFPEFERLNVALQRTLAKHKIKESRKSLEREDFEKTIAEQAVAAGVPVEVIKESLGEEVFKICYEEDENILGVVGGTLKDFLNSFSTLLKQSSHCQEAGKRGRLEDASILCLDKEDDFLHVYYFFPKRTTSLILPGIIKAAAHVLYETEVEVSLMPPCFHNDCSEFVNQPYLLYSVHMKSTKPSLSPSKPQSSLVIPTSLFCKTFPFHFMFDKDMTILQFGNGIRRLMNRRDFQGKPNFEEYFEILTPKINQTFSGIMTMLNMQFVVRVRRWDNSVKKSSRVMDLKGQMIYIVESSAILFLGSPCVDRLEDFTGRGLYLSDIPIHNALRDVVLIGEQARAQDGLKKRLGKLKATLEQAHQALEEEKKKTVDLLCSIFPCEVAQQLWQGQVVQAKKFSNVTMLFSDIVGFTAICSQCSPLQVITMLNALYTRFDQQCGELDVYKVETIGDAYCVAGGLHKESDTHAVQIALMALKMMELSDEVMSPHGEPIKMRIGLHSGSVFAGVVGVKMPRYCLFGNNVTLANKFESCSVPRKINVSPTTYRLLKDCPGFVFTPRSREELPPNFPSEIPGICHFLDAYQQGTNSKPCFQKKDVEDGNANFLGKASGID

| pKd [1] | Structure (SMILES) | SPR (Biacore T200) at 100 μM [2] |
| --- | --- | --- |
| 3.49 | Nc1nc2c(ncn2[C@@H]2O[C@H](COP(=O)(O)OP(=O)(O)OP(=O)(O)O)[C@@H](O)[C@H]2O)c(=O)[nH]1 [GTP] | – |
| – | O=C(O)CCCCN(CCc1ccccc1OCc1ccc(CCc2ccccc2)cc1)Cc1ccc(C(=O)O)cc1 [compound 1, BAY 58-2667] | showed strong binding to the full length sGC and only non-specific binding to sGCcat |

From PMC3978654, “Surface plasmon resonance using the catalytic domain of soluble guanylate cyclase allows the detection of enzyme activators^” (Bioorganic & Medicinal Chemistry Letters, 2014)
